Reference: PubChem BioAssay AID1628 (Sanford-Burnham Center for Chemical Genomics, 2009)
Values joined by “and” are separate entries in the source; they are usually repeats but may differ in a detail not shown here. Identical values can stand only once.

System: MIN6 insulin promoter GFP reporter, high-content imaging
Assay: decrease of insulin promoter-GFP reporter – imaging, high-content screening, mouse beta cells (AID 1628);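 note: potency for lowering insulin promoter GFP signal so compounds are inhibitors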

CN(C)c1ccnc2c[cH-]cc12.[Fe].c1ccc(-[c-]2[c-](-c3ccccc3)[c-](-c3ccccc3)[c-](-c3ccccc3)[c-]2-c2ccccc2)cc1 (stereo unspecified)
IC50: 2630 nM and 1620 nM
